In publication PMC6099883 (Proceedings of the National Academy of Sciences of the …, 2018):

Target: T1, OsGID1 with SLR1 (Oryza sativa, UniProt Q6L545)
T1 sequence (Q6L545 1-354): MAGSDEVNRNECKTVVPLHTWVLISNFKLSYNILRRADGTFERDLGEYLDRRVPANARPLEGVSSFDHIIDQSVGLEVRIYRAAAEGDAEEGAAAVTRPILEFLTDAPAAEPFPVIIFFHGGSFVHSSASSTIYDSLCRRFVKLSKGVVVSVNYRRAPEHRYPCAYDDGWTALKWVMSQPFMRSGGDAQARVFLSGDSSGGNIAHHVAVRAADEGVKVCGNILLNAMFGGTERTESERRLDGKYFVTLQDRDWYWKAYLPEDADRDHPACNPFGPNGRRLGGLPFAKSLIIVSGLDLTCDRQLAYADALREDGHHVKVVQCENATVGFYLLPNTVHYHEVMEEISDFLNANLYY
T1 sequence (Q7G7J6 1-625 partner): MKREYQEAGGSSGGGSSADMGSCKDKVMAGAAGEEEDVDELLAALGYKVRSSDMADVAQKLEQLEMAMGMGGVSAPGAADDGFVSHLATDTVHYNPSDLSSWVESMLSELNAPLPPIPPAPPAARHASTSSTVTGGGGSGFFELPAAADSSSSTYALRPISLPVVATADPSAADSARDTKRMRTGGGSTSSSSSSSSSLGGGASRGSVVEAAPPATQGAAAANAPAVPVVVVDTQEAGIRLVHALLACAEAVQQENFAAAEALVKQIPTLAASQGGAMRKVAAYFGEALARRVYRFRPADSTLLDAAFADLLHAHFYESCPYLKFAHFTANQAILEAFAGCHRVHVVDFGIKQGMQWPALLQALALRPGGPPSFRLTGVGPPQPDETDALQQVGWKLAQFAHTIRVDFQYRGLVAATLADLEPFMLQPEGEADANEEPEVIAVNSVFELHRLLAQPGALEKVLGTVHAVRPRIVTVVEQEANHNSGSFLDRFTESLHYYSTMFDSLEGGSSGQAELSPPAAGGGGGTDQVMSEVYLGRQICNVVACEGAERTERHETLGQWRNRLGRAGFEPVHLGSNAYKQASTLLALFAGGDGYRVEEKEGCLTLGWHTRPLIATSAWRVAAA
Experiment: SPR
Assay type: binding

SMILES | Kd
C=C1C[C@]23C[C@@]1(O)CC[C@H]2[C@@]12CC[C@H](O)[C@@](C)(C(=O)O1)[C@H]2[C@@H]3C(=O)O [GA1] | 305 nM
C=C1C[C@]23C[C@@]1(O)CC[C@H]2[C@@]12C=C[C@H](O)[C@@](C)(C(=O)O1)[C@H]2[C@@H]3C(=O)O [GA3] | 296 nM
